The Kd is the equilibrium constant for the complex coming apart. A high value points to a looser complex.

This is an account of results in publication PMC4830892, “A microarray-based approach to evaluate the functional significance of protein-binding motifs” (Analytical and Bioanalytical Chemistry, 2016).

Experiment [1] addresses α-phosphotyrosine antibody (α-pTyr 100). The experiment in a line: Titration of α-pY antibody on peptide microarrays. In kind it is binding. Conditions: for Kd: peptide microarray, α-pY antibody 0.06 to 6.66 nM, 3 h at 4 °C, indirect immunofluorescence (Alexa633), bimolecular binding isotherm (Eq. 1), average ± standard deviation, six independent experiments; for α-pY titration curve / binding: result in words, R^2 of 0.8 as cutoff for a binder. The procedure:
(§1) Peptides that correspond to known interaction motifs involved in the formation of protein complexes in T cell signalling were purchased from EMC microcollections (Tübingen, Germany). All peptides carried an extra cysteine residue and a free N-terminus for immobilisation on the microarray substrates and a C-terminal amidation (see Electronic Supplementary Material (ESM), Table S1).
(§2) For generation of microarrays, peptide stock solutions (3 mM) in DMF were diluted 30 times with phosphate buffer (100 mM, pH 8) supplemented with 0.006 % (v/v) Triton X-100. N-Hydroxysuccinimide-preactivated slides served as substrates for immobilisation (Nexterion Slide H, Schott Nexterion/Peq-Lab, Erlangen, Germany) using a Nano-Plotter NP2.0 (GeSIM, Großerkmannshof, Germany), which employs piezo-driven pipetting tips to dispense peptide solutions. Microarray slides comprised 16 subarrays of doublets of each peptide. For each peptide, a volume of 1.2 nl was dispensed at a centre-to-centre spacing of 500 μm. During printing, temperature was maintained at 15 °C and air humidity at 65 %.
(§3) Sixteen incubation chambers with identical subarrays consisting of peptides derived from binding motifs of signalling proteins (see ESM Table S1) were generated by attaching a clip-on frame to the microarray substrate (ProPlate Multiarray System, Grace Biolabs, Molecular Probes, Eugene, OR, USA). The typical incubation volume for the subarrays was 50 μl. Microarrays were either incubated with an α-pY antibody (α-pTyr 100, 9411, Cell Signalling, Frankfurt am Main, Germany) at the indicated concentrations or co-incubated with cell lysate at the indicated concentrations for 3 h at 4 °C. Additionally, in another set of experiments, recombinant GRB2-SH2 was incubated on microarrays alone or co-incubated with cell lysate employing an α-penta HIS antibody (34600, Qiagen, Hilden, Germany) for the detection of His-tagged GRB2-SH2.
(§4) After incubation, microarrays were washed three times with washing buffer (PBS, 0.05 % (w/v) BSA, 0.05 % (w/v) Tween-20). For the detection of signals, microarrays were incubated with a secondary α-mouse antibody conjugated with Alexa633 (A-21050, Invitrogen) at a concentration of 1 μg/ml for 15 min at RT followed by a last washing step with washing buffer. Microarrays were dried with nitrogen and scanned using a ProScanArray (PerkinElmer Life Sciences, Waltham, Massachusetts), and the data were analysed using ArrayPro Analyzer software (Media Cybernetics, Silver Spring, USA) as described before. Final data represented the mean signal intensities corrected for the median of a ring-shaped local background surrounding the respective peptide spot. Titrations with α-pY antibody and GRB2-SH2 were performed to calculate dissociation constants (see below).
The resulting titration curves were fitted with Origin (OriginLab Corporation, v.6.1057, Northampton, USA) using a binding isotherm for a bimolecular interaction (Eq. 1):1 Fabs=Fmaxprot/Kd+prot Fabs represents the intensity of a microarray spot after background correction and [prot] the concentration of the titrated binder. Kd and Fmax were obtained from the fits.
To render this approach quantitative, first the affinities of the α-pY antibody towards the phosphotyrosine motifs of the microarrays were determined. […] The titration curves were fitted with a binding isotherm for a bimolecular interaction (Eq. 1, Fig. 2a, Table 1). In general, a coefficient of determination (R^2) of 0.8 was used as a cutoff in order to score a peptide as a binder. […] Regarding the poly-proline motif (PP) containing peptides present on the microarray, only on the peptide GAB2-509 in five experiments, a titration curve with an R^2 > 0.8 could be generated.

Experiment [2] relates to proteins in Jurkat cell lysate (total cellular proteome). In words: Competition of α-pY antibody binding with Jurkat cell lysate on peptide microarrays. The following applies: for Kd: from EC50 and Kd α-pY by Cheng-Prusoff equation (Eq. 4), ± standard deviation. The procedure: as §1, §2
Jurkat T cell leukaemia cells were maintained in RPMI 1640 medium (PAN-Biotech, Aisenbach, Germany) supplemented with 10 % foetal calf serum at 37 °C in 5 % CO2. For the preparation of lysates, cells were resuspended in lysis buffer (1 % Triton X-100, 50 mM n-octyl-D-glucopyranoside (Fluka, Taufkirchen, Germany), 20 mM Tris, 1 mM EDTA, 150 mM NaCl, 1 mM Na3VO4, pH 7.5, and complete protease inhibitor cocktail (Roche Applied Science, Mannheim, Germany)). Incubation on ice for 1 h was followed by centrifugation at 20,000×g at 4 °C for 15 min to remove cell debris. Transmembrane proteins were extracted from lipid rafts by using N-octyl-D-glucopyranoside. Protein concentrations were measured by Bradford Assay.
as §3, §4
For determination of EC50 values for competition with cell lysate, curves were fitted according to2 y=y0+Ae^−x/t with y0 as the signal intensity of the α-pY antibody or the recombinant GRB2-SH2 domain without cell lysate, A the amplitude, x the protein concentration in lysate, and t the decay constant. […]

The test system of experiment [3] is SH2 domain of GRB2 (GRB2-SH2). Conditions: Kd values of GRB2-SH2 described in recently published manuscript; ref [14]; cited from earlier work. From the text: In contrast, the data points for LATpY191 and SHP1pY564, and SigpY437, ZAPpY319 and CDζpY72/83 were above or below the linear correlation defined by the first four peptides. […] SigpY437, in contrast, is a poor binder for which already low concent ...

Non-standard residues stand in square brackets, D forms with d. Residues, ends and D or L forms follow the SMILES beside them. pY = N[C@@H](Cc1ccc(OP(=O)(O)O)cc1)C(=O)O; Ahx = NCCCCCC(=O)O

With `CC(C)C[C@H](NC(=O)[C@@H](NC(=O)[C@H](CC(=O)O)NC(=O)[C@H](Cc1ccc(OP(=O)(O)O)cc1)NC(=O)[C@H](CCC(=O)O)NC(=O)[C@H](CCC(=O)O)NC(=O)[C@H](CCCNC(=N)N)NC(=O)[C@H](CCCNC(=N)N)NC(=O)CNC(=O)[C@H](CC(C)C)NC(=O)[C@H](CC(N)=O)NC(=O)[C@H](CC(C)C)NC(=O)[C@H](CCC(=O)O)NC(=O)[C@H](CC(N)=O)NC(=O)[C@H](Cc1ccc(OP(=O)(O)O)cc1)NC(=O)[C@H](CC(C)C)NC(=O)[C@H](CCC(N)=O)NC(=O)[C@H](CC(N)=O)NC(=O)CCCCCNC(=O)[C@@H](N)CS)C(C)C)C(N)=O` [CD3ζpY72/83] (H-C[Ahx]NQL[pY]NELNLGRREE[pY]DVL-NH2), the dissociation constant (Kd) in experiment [1] is 0.69 ± 0.61 nM; in experiment [2] it was 25000 ± 27000 nM.

In experiment [1], `CC(C)[C@H](NC(=O)[C@H](CC(=O)O)NC(=O)[C@H](CC(=O)O)NC(=O)[C@H](Cc1ccc(OP(=O)(O)O)cc1)NC(=O)[C@@H](NC(=O)[C@H](CCC(=O)O)NC(=O)[C@H](CCC(N)=O)NC(=O)[C@H](CC(=O)O)NC(=O)[C@H](CC(=O)O)NC(=O)[C@H](CCC(=O)O)NC(=O)[C@@H](N)CS)C(C)C)C(=O)N[C@@H](C)C(=O)N[C@@H](CCC(=O)O)C(=O)N[C@@H](CCC(N)=O)C(=O)N[C@@H](CC(=O)O)C(N)=O` [FYBpY595] (H-CEDDQEV[pY]DDVAEQD-NH2) registered a dissociation constant Kd of 0.77 ± 0.28 nM.

For `CC[C@H](C)[C@H](NC(=O)CNC(=O)[C@H](CC(=O)O)NC(=O)[C@H](Cc1ccc(OP(=O)(O)O)cc1)NC(=O)[C@@H](NC(=O)[C@H](CC(=O)O)NC(=O)[C@H](CC(=O)O)NC(=O)[C@H](CC(=O)O)NC(=O)[C@@H](N)CS)[C@@H](C)CC)C(=O)N[C@@H](CCC(=O)O)C(=O)N[C@@H](CCC(=O)O)C(=O)N[C@@H](CCC(=O)O)C(=O)N[C@@H](CC(=O)O)C(N)=O` [FYBpY625] (H-CDDDI[pY]DGIEEED-NH2), the Kd was found to be 0.46 ± 0.15 nM in experiment [1] and 17000 ± 13000 nM in experiment [2].

As to `CSCC[C@H](NC(=O)[C@H](CC(=O)O)NC(=O)[C@H](CC(C)C)NC(=O)[C@@H](N)CS)C(=O)NCC(=O)N[C@@H](CC(=O)O)C(=O)N[C@@H](CCC(=O)O)C(=O)N[C@H](C(=O)N[C@@H](Cc1ccc(OP(=O)(O)O)cc1)C(=O)N[C@@H](CC(=O)O)C(=O)N[C@@H](CC(=O)O)C(=O)N[C@H](C(=O)N[C@@H](CC(=O)O)C(=O)N[C@H](C(=O)N[C@@H](CO)C(=O)N[C@@H](CC(=O)O)C(=O)N[C@@H](Cc1ccccc1)C(N)=O)[C@@H](C)O)C(C)C)C(C)C` [FYBpY651] (H-CLDMGDEV[pY]DDVDTSDF-NH2), the results for the equilibrium dissociation constant (Kd) in experiment [1] and in experiment [2] were 0.28 ± 0.09 nM and 12000 ± 9000 nM, respectively.

With `CC[C@H](C)[C@H](NC(=O)[C@H](CC(=O)O)NC(=O)[C@H](CC(=O)O)NC(=O)[C@H](Cc1ccc(OP(=O)(O)O)cc1)NC(=O)[C@@H](NC(=O)[C@H](CCC(=O)O)NC(=O)CNC(=O)[C@H](CC(=O)O)NC(=O)[C@H](CC(N)=O)NC(=O)[C@@H](N)CS)[C@@H](C)CC)C(=O)N[C@@H](C)C(=O)N[C@@H](CC(=O)O)C(=O)NCC(N)=O` [FYBpY771] (H-CNDGEI[pY]DDIADG-NH2), the dissociation constant Kd is 0.5 ± 0.23 nM in experiment [1] and 5000 ± 1000 nM in experiment [2]. Moreover, the “affinity for / binding to cellular proteome (in words)” value in experiment [2] (competition of α-pY with cell lysate, FYB peptides) is “highest affinity of all four FYB peptides”.

Take `CC(C)C[C@H](NC(=O)[C@H](Cc1ccc(OP(=O)(O)O)cc1)NC(=O)CNC(=O)[C@@H]1CCCN1C(=O)[C@H](CC(N)=O)NC(=O)[C@H](Cc1c[nH]cn1)NC(=O)[C@H](Cc1ccc(O)cc1)NC(=O)[C@H](CC(=O)O)NC(=O)[C@H](CC(=O)O)NC(=O)[C@H](CCC(=O)O)NC(=O)[C@H](CC(=O)O)NC(=O)[C@H](CCC(=O)O)NC(=O)[C@@H](N)CS)C(=O)N[C@H](C(=O)N[C@H](C(=O)N[C@@H](CC(C)C)C(=O)N1CCC[C@H]1C(=O)N[C@@H](CC(=O)O)C(=O)N[C@@H](CO)C(=O)N[C@H](C(=O)N1CCC[C@H]1C(N)=O)[C@@H](C)O)C(C)C)C(C)C` [LATpY132] (H-CEDEDDYHNPG[pY]LVVLPDSTP-NH2): the dissociation constant (Kd) in experiment [1] turned out to be 0.41 ± 0.38 nM; in experiment [2], 11000 ± 13000 nM. In addition, in experiment [3], the “binding to GRB2 / GRB2-SH2 (in words)” value was “good binder”.

Regarding `CC(C)C[C@H](NC(=O)[C@H](CCC(=O)O)NC(=O)[C@H](CCC(N)=O)NC(=O)[C@H](CC(C)C)NC(=O)[C@H](CC(N)=O)NC(=O)[C@H](CCC(=O)O)NC(=O)[C@H](Cc1ccc(OP(=O)(O)O)cc1)NC(=O)[C@H](CC(=O)O)NC(=O)[C@@H]1CCCN1C(=O)[C@H](C)NC(=O)CNC(=O)[C@H](CCC(=O)O)NC(=O)[C@H](CCC(=O)O)NC(=O)[C@H](CCC(=O)O)NC(=O)[C@@H](NC(=O)[C@H](CCC(=O)O)NC(=O)[C@@H](N)CS)C(C)C)C(=O)N[C@@H](CC(N)=O)C(N)=O` [LATpY226] (H-CEVEEEGAPD[pY]ENLQELN-NH2), the results for the Kd in experiment [1] and in experiment [2] were 0.44 ± 0.27 nM and 15000 ± 11000 nM, respectively. For the same compound, the “binding to GRB2 / GRB2-SH2 (in words)” value in experiment [3] is “good binder”.

Consider `CSCC[C@H](NC(=O)[C@@H]1CCCN1C(=O)[C@H](CC(N)=O)NC(=O)[C@H](C)NC(=O)[C@H](CCC(=O)O)NC(=O)[C@@H](NC(=O)[C@H](Cc1ccc(OP(=O)(O)O)cc1)NC(=O)[C@H](Cc1ccccc1)NC(=O)CNC(=O)[C@@H]1CCCN1C(=O)[C@H](CC(N)=O)NC(=O)[C@H](CCCNC(=N)N)NC(=O)CNC(=O)[C@H](CCC(=O)O)NC(=O)[C@@H](N)CS)C(C)C)C(=O)N1CCC[C@H]1C(=O)N[C@H](C(N)=O)[C@@H](C)O` [PLCγpY783] (H-CEGRNPGF[pY]VEANPMPT-NH2), for which the results for the dissociation constant (Kd) in experiment [1] and in experiment [2] were 0.55 ± 0.33 nM and 7000 ± 2000 nM, respectively. For the same compound, in experiment [3], the “binding to GRB2 / GRB2-SH2 (in words)” value is reported as “good binder”.

With `CC(C)C[C@H](NC(=O)[C@H](CCC(=O)O)NC(=O)[C@H](CCC(=O)O)NC(=O)[C@@H]1CCCN1C(=O)[C@H](CC(=O)O)NC(=O)[C@H](CO)NC(=O)[C@H](Cc1ccc(OP(=O)(O)O)cc1)NC(=O)[C@@H]1CCCN1C(=O)[C@H](CO)NC(=O)[C@H](CCC(=O)O)NC(=O)[C@H](Cc1ccc(O)cc1)NC(=O)[C@@H](NC(=O)[C@@H](N)CS)C(C)C)C(=O)N[C@@H](CCCCN)C(=O)N[C@@H](CC(=O)O)C(N)=O` [ZAPpY319] (H-CVYESP[pY]SDPEELKD-NH2), the results for the Kd in experiment [1] and in experiment [2] were 0.6 ± 0.46 nM and 26000 ± 32000 nM, respectively.

As to CGNKGRSGPLPPVPLGIA-NH2 [WAS334], the “α-pY titration curve / binding” value in experiment [1] is given as “no titration curves could be generated”.

In the case of CLDIQDKPPAPPMRNT-NH2 [PAK6], the “α-pY titration curve / binding” value in experiment [1] is recorded as “no titration curves could be generated”.
